Each structure is given as a SMILES string. Counter-ions that a name gives are not always drawn.

The IC50 is the point on the concentration scale where inhibition reaches its midpoint.

The assay concerns the target T1, TAK1-TAB1 fusion protein (Homo sapiens, UniProt O43318).
T1 construct: purchased Carna
T1 sequence (O43318 with tags, fused parts or gaps limits assumed): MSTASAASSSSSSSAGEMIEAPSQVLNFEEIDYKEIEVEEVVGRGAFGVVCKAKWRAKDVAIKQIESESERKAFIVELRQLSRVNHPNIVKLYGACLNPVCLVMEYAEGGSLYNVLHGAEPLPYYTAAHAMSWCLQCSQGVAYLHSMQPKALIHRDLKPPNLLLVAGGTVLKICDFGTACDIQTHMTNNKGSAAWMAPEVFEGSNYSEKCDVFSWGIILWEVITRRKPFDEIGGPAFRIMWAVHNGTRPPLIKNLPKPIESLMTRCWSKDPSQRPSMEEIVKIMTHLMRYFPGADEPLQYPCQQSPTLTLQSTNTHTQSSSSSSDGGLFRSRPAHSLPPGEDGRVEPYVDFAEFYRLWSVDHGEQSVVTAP
Put plainly: TAK1 biochemical assay (AlphaScreen, GST-MAP2K7 substrate). As to conditions: TAK1-TAB1 fusion protein, GST-MAP2K7 substrate; read-out: mean TAK1 IC50 (Col. A).
Turning to `Cn1cnc(-c2cnc(N)c3oc(-c4csc5cnccc45)cc23)c1` [Example 395, 4-(1-methyl-1H-imidazol-4-yl)-2-thieno[2,3-c]pyridin-3-yl-furo[2,3-c]pyridin-7-ylamine], the IC50 was over 10 µM.
As for `CC(=O)N1CCC(n2cc(-c3cnc(N)c4oc(-c5cccc(C(F)(F)F)c5)cc34)cn2)CC1` [Example 185, 1-[4-(4-{7-amino-2-[3-(trifluoromethyl)phenyl]furo[2,3-c]pyridin-4-yl}-1H-pyrazol-1-yl)piperidin-1-yl]ethanone], the IC50 lay in the range of 1 to 10 µM.
For `CC(=O)Nc1ccccc1-c1cc2c(-c3cnn(C4CCN(C(C)=O)CC4)c3)cnc(N)c2o1` [Example 141, N-(2-{4-[1-(1-acetylpiperidin-4-yl)-1H-pyrazol-4-yl]-7-aminofuro[2,3-c]pyridin-2-yl}phenyl)acetamide] the value was over 10 µM; for `Nc1ncc(-c2cnn(C3CCNCC3)c2)c2cc(-c3ccoc3)oc12` [Example 21, 2-(furan-3-yl)-4-[1-(piperidin-4-yl)-1H-pyrazol-4-yl]furo[2,3-c]pyridine-7-amine], 1 to 10 µM.
For `Cc1ncc(-c2cnc(N)c3oc(-c4csc5cnccc45)cc23)n1C` [Example 397, 4-(2,3-dimethyl-3H-imidazol-4-yl)-2-thieno[2,3-c]pyridin-3-yl-furo[2,3-c]pyridin-7-ylamine] the value was 1 to 10 µM; for `CC(=O)N1CCC(n2cc(-c3cnc(N)c4oc(-c5ccc(N)c(C#N)c5)cc34)cn2)CC1` [Example 104, 5-{4-[1-(1-acetylpiperidin-4-yl) 1H-pyrazol-4-yl]-7-aminofuro[2,3-c]pyridin-2-yl}-2-aminobenzonitrile], 1 to 10 µM.
For `Nc1ncc(-c2cnn([C@H]3CC[C@H](O)CC3)c2)c2cc(-c3cccc4ncccc34)oc12` [Example 235, trans-4-{4-[7-amino-2-(quinolin-5-yl)furo[2,3-c]pyridin-4-yl]-1H-pyrazol-1-yl}cyclohexanol], the IC50 fell in the range of 1 to 10 µM.
In the case of `CC(=O)N1CCC(n2cc(-c3cnc(N)c4oc(-c5cccc(N)c5)cc34)cn2)CC1` [Example 130, 1-(4-{4-[7-amino-2-(3-aminophenyl)furo[2,3-c]pyridin-4-yl]-1H-pyrazol-1-yl}piperidin-1-yl)ethanone], the IC50 was 0.1 to 1 µM.
The value for `CC(=O)N1CCC(n2cc(-c3cnc(N)c4oc(-c5c(F)ccc6ncsc56)cc34)cn2)CC1` [Example 358, 1-(4-{4-[7-amino-2-(6-fluoro-1,3-benzothiazol-7-yl)furo[2,3-c]pyridin-4-yl]-1H-pyrazol-1-yl}piperidin-1-yl)ethanone bis(trifluoroacetate)] was 0.1 to 1 µM; that for `CC(=O)N1CCC(n2cc(-c3cnc(N)c4oc(-c5ccccc5C(N)=O)cc34)cn2)CC1` [Example 172, 2-{4-[1-(1-acetylpiperidin-4-yl)-1H-pyrazol-4-yl]-7-aminofuro[2,3-c]pyridin-2-yl}benzamide] was 1 to 10 µM; that for `Cc1ccc(-c2cnc(N)c3oc(-c4csc5cnccc45)cc23)s1` [Example 386, 4-(5-methyl-thiophen-2-yl)-2-thieno[2,3-c]pyridin-3-yl-furo[2,3-c]pyridin-7-ylamine] was 1 to 10 µM.
For `Nc1ncc(-c2cnn(C3CCNCC3)c2)c2cc(-c3cc(F)cc(F)c3)oc12` [Example 8, 2-(3,5-difluorophenyl)-4-[1-(piperidin-4-yl)-1H-pyrazol-4-yl]furo[2,3-c]pyridin-7-amine] the value was 1 to 10 µM; for `Nc1ncc(-c2cnn(CCO)c2)c2cc(-c3cccc4cnccc34)oc12` [Example 67, 2-{4-[7-amino-2-(isoquinolin-5-yl)furo[2,3-c]pyridin-4-yl]-1H-pyrazol-1-yl}ethanol], 1 to 10 µM.
Turning to `CC(=O)Nc1cccc(-c2cc3c(-c4cnn(C5CCN(C(C)=O)CC5)c4)cnc(N)c3o2)c1` [Example 137, N-(3-{4-[1-(1-acetylpiperidin-4-yl) 1H-pyrazol-4-yl]-7-aminofuro[2,3-c]pyridin-2-yl}phenyl)acetamide], the IC50 was in the range of 1 to 10 µM.
For the molecule `CC(=O)N1CCC(n2cc(-c3cnc(N)c4oc(-c5cccc(OCCC(C)C)c5)cc34)cn2)CC1` [Example 208, 1-[4-(4-{7-amino-2-[3-(3-methylbutoxy)phenyl]furo[2,3-c]pyridin-4-yl}-1H-pyrazol-1-yl)piperidin-1-yl]ethanone], the IC50 is over 10 µM.
In the case of `Nc1ncc(-c2cnn(CCO)c2)c2cc(-c3csc4cnccc34)oc12` [Example 319, 2-[4-(7-amino-2-thieno[2,3-d]pyridin-3-yl-furo[2,3-d]pyridin-4-yl)-pyrazol-1-yl]-ethanol], the IC50 lay within 0.1 to 1 µM.
Regarding `CC(=O)N1CCC(n2cc(-c3cnc(N)c4oc(-c5cccc(OC(C)C)c5)cc34)cn2)CC1` [Example 165, 1-[4-(4-{7-amino-2-[3-(propan-2-yloxy)phenyl]furo[2,3-c}pyridin-4-yl}-1H-pyrazol-1-yl)piperidin-1-yl}ethanone], the IC50 is 1 to 10 µM.
The value for `COC(=O)c1cc2cc(-c3cc4c(-c5cnn(C6CCNCC6)c5)cnc(N)c4o3)ccc2s1` [Example 47, methyl 5-{7-amino-4-[1-(piperidin-4-yl)-1H-pyrazol-4-yl]furo[2,3-c]pyridine-2-yl}-1-benzothiophene-2-carboxylate] was 1 to 10 µM.
For `CC(=O)N1CCC(n2cc(-c3cnc(N)c4oc(-c5ccc(N6CCCCC6)nc5)cc34)cn2)CC1` [Example 118, 1-[4-(4-{7-amino-2-[6-(piperidin-1-yl)pyridin-3-yl]furo[2,3-c]pyridin-4-yl}-1H-pyrazol-1-yl)piperidin-1-yl]ethanone] the value was over 10 µM; for `Nc1ncc(-c2ccc(-c3ccccc3)s2)c2cc(-c3csc4cnccc34)oc12` [Example 385, 4-(5-phenyl-thiophen-2-yl)-2-thieno[2,3-c]pyridin-3-yl-furo[2,3-c]pyridin-7-ylamine], over 10 µM.
The value for `CC(=O)N1CCC(n2cc(-c3cnc(N)c4oc(-c5csc6cc(=O)n(C)cc56)cc34)cn2)CC1` [Example 258, 3-{4-[1-(1-acetylpiperidin-4-yl)-1H-pyrazol-4-yl]-7-aminofuro[2,3-c]pyridin-2-yl}-5-methylthieno[3,2-c]pyridin-6(5H)-one trifluoroacetic Acid Salt] was 1 to 10 µM; that for `CCNc1ncc(-c2cnn(C3CCN(C(C)=O)CC3)c2)c2cc(-c3csc4cnccc34)oc12` [Example 277, 1-(4-{4-[7-(ethylamino)-2-(thieno[2,3-c]pyridin-3-yl)furo[2,3-c]pyridin-4-yl]-1H-pyrazol-1-yl}piperidin-1-yl)ethanone trifluoroacetic acid salt] was 1 to 10 µM; that for `CC(=O)N1CCC(n2cc(-c3cnc(N)c4oc(C5=CCC6(CC5)OCCO6)cc34)cn2)CC1` [Example 408, 1-(4-{4-[7-amino-2-(1,4-dioxaspiro[4.5]dec-7-en-8-yl)furo[2,3-c]pyridin-4-yl]-1H-pyrazol-1-yl}piperidin-1-yl)ethanone] was over 10 µM.
For the molecule `Nc1ncc(-c2cnn(C3CCNCC3)c2)c2cc(-c3cncc4ccccc34)oc12` [Example 34, 2-(isoquinolin-4-yl)-4-[1-(piperidin-4-yl)-1H-pyrazol-4-yl]furo[2,3-c]pyridine-7-amine], the IC50 is 1 to 10 µM.
Turning to `COCCOc1cccc(-c2cc3c(-c4cnn(C5CCN(C(C)=O)CC5)c4)cnc(N)c3o2)c1` [Example 200, 1-[4-(4-{7-amino-2-[3-(2-methoxyethoxy)phenyl]furo[2,3-c]pyridin-4-yl}-1H-pyrazol-1-yl)piperidin-1-yl]ethanone], the IC50 lay within 1 to 10 µM.
`CC(=O)N1CCC(n2cc(-c3cnc(N)c4oc(-c5cccc(C(=O)N6CCOCC6)c5)cc34)cn2)CC1` [Example 127, 1-[4-(4-{7-amino-2-[3-(morpholin-4-ylcarbonyl)phenyl]furo[2,3-c]pyridin-4-yl}-1H-pyrazol-1-yl)piperidin-1-yl]ethanone]: the 50% inhibitory concentration (IC50) lay in the range of 1 to 10 µM.
The value for `CC(=O)N1CCC(n2cc(-c3cnc(N)c4oc(-c5cccc(OCC(C)C)c5)cc34)cn2)CC1` [Example 204, 1-[4-(4-{7-amino-2-[3-(2-methylpropoxy)phenyl]furo[2,3-c]pyridin-4-yl}-1H-pyrazol-1-yl)piperidin-1-yl]ethanone] was over 10 µM; that for `Cc1nn(C[C@H](O)CO)cc1-c1cnc(N)c2oc(-c3csc4cnccc34)cc12` [Example 318, (S)-3-[4-(7-amino-2-thieno[2,3-d]pyridin-3-yl-furo[2,3-d]pyridin-4-yl)-3-methyl-pyrazol-1-yl]-propane-1,2-diol] was 1 to 10 µM; that for `Cc1csc(-c2cnc(N)c3oc(-c4csc5cnccc45)cc23)c1` [Example 375, 4-(4-methyl-thiophen-2-yl)-2-thieno[2,3-c]pyridin-3-yl-furo[2,3-c]pyridin-7-ylamine] was 1 to 10 µM.
With `CC(=O)N1CCC(n2cc(-c3cnc(N)c4oc(-c5ccnc6cc(Cl)ccc56)cc34)cn2)CC1` [Example 409, 1-(4-{4-[7-amino-2-(7-chloroquinolin-4-yl)furo[2,3-c]pyridin-4-yl]-1H-pyrazol-1-yl}piperidin-1-yl)ethanone], the IC50 was 1 to 10 µM.
The value for `CCn1cc(-c2cnc(N)c3oc(-c4cccc5cnccc45)cc23)cn1` [Example 71, 4-(1-ethyl-1H-pyrazol-4-yl)-2-(isoquinolin-5-yl)furo[2,3-c]pyridin-7-amine] was 1 to 10 µM; that for `Nc1ncc(-c2cnn(C3CCNCC3)c2)c2cc(-c3cccc4c3Sc3ccccc3S4)oc12` [Example 35, 4-[1-(piperidin-4-yl)-1H-pyrazol-4-yl]-2-(thianthren-1-yl)furo[2,3-c]pyridine-7-amine] was 1 to 10 µM.
